Results as given in patent US10653741B2, “Herbo-mineral formulation for the treatment of cardio vascular diseases and method of preparation thereof” (Muniyal Ayurvedic Research Centre, priority 2017, dated 2020).

Columns and labels:
[1] = Organ weight, ISP induced myocardial infarction study; type: in vivo, Sprague-Dawley rats; conditions: Carvedilol 2 mg/kg + ISP
Source text: (§1) Animals: 35 male Sprague-Dawley rats of 150-200 g body weight were selected for the study. Animals were housed in individual polycarbonate cages in a well-ventilated room under an ambient temperature of 23±2 degree C. and 40-65% relative humidity, with artificial photoperiod 12-h light/12-h dark cycle. They were provided with standard rodent pellet diet (Nutrilab Rodent, Tetragon Chemie, India) and purified water ad libitum (RIOS, USA). Experimental animals were acclimatized for 7 days to the laboratory conditions prior to experimentation. The study protocol was approved by Institutional Animal Ethical Committee (IAEC).
(§2) Experimental groups and design: Rats were randomized into 5 groups based on the body weight. ISP (120 mg/kg) was injected subcutaneously to rats on 19th and 21st day to induce experimental myocardial infarction. Test drug was orally administered throughout the study. • Group I (Normal control): 0.5% CMC • Group II (Positive control): 0.5% CMC+ISP (120 mg/kg) • Group III (Standard): Carvedilol (2 mg/kg/day, p.o)+ISP (120 mg/kg, s.c.) • Group IV (Low dose): Test drug (50 mg/kg/day, p.o)+ISP (120 mg/kg, s.c.) • Group V (High dose): Test drug (100 mg/kg/day, p.o)+ISP (120 mg/kg, s.c.)
(§3) The change in body weight was recorded every week. At the end of the experiment, blood was collected and the plasma was separated for biochemical investigation. The animals were euthanized and the organs (heart, Kidney and adrenals) were dissected out and weighed. Heart homogenate was used for further analysis and LV was separated for the analysis of apoptotic marker gene expression as depicted in the various examples hereunder.

[2] = Body weight, ISP induced myocardial infarction study; type: in vivo, Sprague-Dawley rats; conditions: Carvedilol 2 mg/kg + ISP, Mean ± SEM
Source text: as §1, §2, §3

## COc1ccccc1OCCNCC(O)COc1cccc2[nH]c3ccccc3c12 (centres unmarked) [Carvedilol]
[1]
  Organ weight: Heart, percent in brackets (compared with Positive control): 13.1%
[1]; Mean ± SEM
  Organ weight: Adrenals: 0.02 ± 0.00 g
  Organ weight: Heart: 0.44 ± 0.07 g
  Organ weight: Kidney: 0.68 ± 0.10 g
[2]; 0th day
  Body weight: 211.00 ± 1.70 g
[2]; 7th day
  Body weight: 210.57 ± 3.22 g
[2]; 14th day
  Body weight: 218.43 ± 4.37 g
[2]; 21st day
  Body weight: 216.43 ± 1.58 g
